The test system of one series is Red blood cells. The series can be described thus: Red blood cell lysis. Format: cell-based. The following applies: 1% (v/v) red blood cells in PBS; peptides 0.3125-80 μM. How it is done:
Red blood cells were prepared from fresh whole blood. Red blood cells were diluted to 1% (v/v) with PBS and 0.1 mL aliquots added to a 96 well microtitre plate. Venom and venom peptides were added in 5 μL of normal saline. Whole ant venom concentration (final): 80, 40, 20, 10, 5, 2.5, 1.25, 0.625, 0.3125 4μg/mL. Venom peptide concentration (final): 80, 40, 20, 10, 5, 2.5, 1.25, 0.625, 0.3125 μM.

In the next series the test system is EBV-transformed B-cells. Description: Flow cytometry cell viability (propidium iodide exclusion). It counts as cell-based, human. As to conditions: 5 μM, treated for 5 minutes; untreated control about 15% permeable. The protocol:
(§1) Cell proliferation and flow cytometry have been used to determine the cytotoxic effects on cells. Cell proliferation involves growing cells to log-phase growth and adding Pilosulin 1 at different final peptide concentrations and ^3 H-methyl thymidine at the same time. The cells are incubated at 37° C. for 16 hours, harvested, lysed and washed and the cells liquid scintillation counted. Flow cytometry employs the exclusion of propidium iodide from cells as an index of their viability. In experiments where fluorescent labelled monoclonal antibodies recognising cell specific markers were used, exclusion of 7-actinomycin D was used as the index of cell viability. In these latter experiments cells were incubated with the fluorescent antibodies and then washed to remove unbound antibodies. The treated cells were stored on ice and Pilosulin 1 added 5 minutes prior to flow cytometric measurement.
Flow cytometry can measure cell viability by their ability to exclude a fluorescent dye such as propidium iodide or 7-actinomycin D. EBV-transformed B-cells were cultured to log-phase growth and venom and venom peptides added. […] Cells were treated for 5 minutes with Pilosulin 1, Pilosulin 2 and melittin over a concentration range of 0.1 to 10 μM and then cell numbers were measured in the flow cytometer.
(In general: In flow cytometry, cells or beads pass a laser one at a time.)

The subject of series [1] is Antibody-labelled (CD3-FITC) white blood cells (T-cell). Description: Kinetics of cell killing at different temperatures (7-AAD, flow cytometry). Format: cell-based. The following applies: 3 μM melittin. The protocol: The kinetics of Pilosulin 1 and melittin cell killing at different temperatures were investigated. Antibody-labelled (CD3-FITC) white blood cells were incubated with 7-AAD (4 μg/mL) and either 1.5 μM Pilosulin 1 or 3 μM melittin. Three tubes were prepared for each peptide and the tubes were incubated at either 0° C. (circles), room temperature (triangles), or 37° C. (diamonds). Samples of each tube were analysed on a flow cytometer at time zero and thereafter at 2, 5 10 and 15 minutes.

Series [2] has as its system Epstein Barr-transformed human B-cells. Description: Cell proliferation (3H-methyl-thymidine). Format: cell-based. How it is done:
as §1
Epstein Barr-transformed human B-cells grown to log phase. One hundred […] of cells (10^5 cells) were placed in the wells of microtitre plates. Venom and venom peptides added to the wells in […] to give final concentrations used in the red cell lysis experiment. One μCi of ^3 H-methyl-thymidine was added to the wells and the plates incubated overnight at 37° C. Cells harvested 17 hr later and counted.

The test system of another series is granulocyte population. The series can be described thus: Relative cytotoxicity for leucocyte components, flow cytometry (7-actinomycin D uptake). Format: cell-based. The protocol:
as §1
The relative cytotoxicity of Pilosulin 1 for the different components of the leucocyte population was studied and the results are shown in FIG. 3.

In series [3] the test system is solid tumour cell lines including a breast cancer, a brain tumour and a kidney cell tumour line. The series can be described thus: Cytotoxicity for solid tumour cell lines. It counts as cell-based. The protocol: as §1
Series [4] relates to normal blood cells, in particular, lymphocytes monocytes and natural killer cells. Description: Cytotoxicity for normal blood cells. Format: cell-based. The protocol:
as §1

The test system of series [5] is cancer cells of myeloid and lymphoid origin. The series can be described thus: Cytotoxicity towards cancer cells. Format: cell-based. As to conditions: in particular rapidly dividing cancer cells of myeloid and lymphoid origin.
The test system of another series is cells. Description: Cytotoxicity to cells (cell proliferation and flow cytometry). As to conditions: cells tested. It counts as cell-based. The protocol: as §1

Like-named read-outs stand apart in the source and are kept apart here. No end group written: not given here.

For `CC[C@H](C)[C@H](NC(=O)CN)C(=O)NCC(=O)N[C@@H](C)C(=O)N[C@H](C(=O)N[C@@H](CC(C)C)C(=O)N[C@@H](CCCCN)C(=O)N[C@H](C(=O)N[C@@H](CC(C)C)C(=O)N[C@H](C(=O)N[C@H](C(=O)NCC(=O)N[C@@H](CC(C)C)C(=O)N1CCC[C@H]1C(=O)N[C@@H](C)C(=O)N[C@@H](CC(C)C)C(=O)N[C@H](C(=O)N[C@@H](CO)C(=O)N[C@@H](Cc1c[nH]c2ccccc12)C(=O)N[C@H](C(=O)N[C@@H](CCCCN)C(=O)N[C@@H](CCCNC(=N)N)C(=O)N[C@@H](CCCCN)C(=O)N[C@@H](CCCNC(=N)N)C(=O)N[C@@H](CCC(N)=O)C(=O)N[C@@H](CCC(N)=O)C(N)=O)[C@@H](C)CC)[C@@H](C)CC)[C@@H](C)O)[C@@H](C)O)C(C)C)C(C)C` [Melittin], in the series with Red blood cells, the “efficiency on a molar basis in the lysis of red blood cells” value was “most efficient”. Also, the “% Viable Cells” value with EBV-transformed B-cells is 53.5%. Also, the cells killed in series [1] (0° C., 10 minutes) is on record as 25%; in [1] (37° C., 2 minutes) it was “all cells were killed”; in series [1] (room temperature, 2 minutes), 85%; in [1] (room temperature, 5 minutes), “killed all cells”.

For “GLGSVFGRLARILGRVIPKVAKKLGPKVAKVLPKVMKEAIPMAVEMAKSQEEQQPQ [Pilosulin 1]”, the “cytotoxicity for proliferating Epstein-Barr Virus transformed B-cells” value in series [2] is recorded as “cytotoxic”. In addition, in series [2] (3H-methyl-thymidine, overnight at 37° C., comparator not named), the “effectiveness as a cytotoxin at 50% cell viability (relative)” value was “approximately 4 times”. Besides, in the series with granulocyte population, the cytotoxicity for granulocytes result is on record as “resistant”. Besides, the “cytotoxicity for solid tumour cell lines” value in series [3] is listed as “cytotoxic”. Further, the “cytotoxicity for normal blood cells” value is reported as “low” in series [4] and “cytotoxic” in series [4] (listed as Pilostilin 1). Moreover, the “cytotoxicity towards cancer cells” value in [5] is recorded as “potent cytotoxicity”.

Consider “KLGPKVAKVLPKVMKEAIPMAVEMAKSQEEQQPQ [peptide 2]”, for which the cytotoxicity to cells entry in the series with cells is on record as “no detectable cytotoxicity”.

The values are drawn from patent US6294649A, “Method of cell inhibition using polypeptides derived from the venom of the Austrialian jumper ant Myrmecia pilosula” (Northern Sydney Area Health Service, priority 1996, dated 2001).
